From patent US20130096149A1, “HETEROARYL COMPOUNDS AND COMPOSITIONS AS PROTEIN KINASE INHIBITORS” (NOVARTIS AG, priority 2010, published 2013)

Target: b-Raf(V600E) (Homo sapiens, UniProt P15056, V600E)
Assay: Raf/Mek Amplified Luminescence Proximity Homogeneous Assay (Alpha Screen)
Assay type: biochemical
Conditions: b-Raf(V600E) approximately 4 pM; biotinylated Mek, kinase dead approximately 10 nM; ATP 10 μM; pre-incubation 60 minutes; reaction 3 hours at room temperature; read-out: mut-bRaf IC50
Description: Raf/Mek Amplified Luminescence Proximity Homogeneous Assay
Assay buffer: 50 mM Tris, pH 7.5, 15 mM MgCl2, 0.01% Bovine Serum Albumin (BSA), 1 mM dithiothreitol (DTT) Stop buffer: 60 mM ethylenediaminetetraacetic acid (EDTA), 0.01% Tween® 20 Bead buffer: 50 mM Tris, pH 7.5, 0.01% Tween® 20 […]
biotinylated Mek, kinase dead
Alpha Screen detection kit (available from PerkinElmer™, #6760617R)
Anti phospho-MEK1/2 (available from Cell Signaling Technology, Inc. #9121) 384 well assay plates (White Greiner® plates, #781207) […]
b-Raf(V600E) approximately 4 pM […]
biotinylated Mek, Kinase dead approximately 10 nM
Pre-incubation time with compounds 60 minutes at room temperature
Reaction time 1 or 3 hours at room temperature
Raf and biotinylated Mek, kinase dead, were combined at 2× final concentrations in assay buffer (50 mM Tris, pH 7.5, 15 mM MgCl2, 0.01% BSA and 1 mM DTT) and dispensed 10 μl per well in assay plates (Greiner white 384 well assay plates #781207) containing 0.5 μl of 40× of a raf kinase inhibitor test compound diluted in 100% DMSO. The plate was incubated for 60 minutes at room temperature.
The Raf kinase activity reaction was started by the addition of 10 μL per well of 2×ATP diluted in assay buffer. After 3 hours (bRaf(V600E)) or 1 hour (c-Raf), the reactions were stopped with the addition of 10 μL of stop reagent (60 mM EDTA). Phosphorylated product was measured using a rabbit anti-p-MEK (Cell Signaling, #9121) antibody and the Alpha Screen IgG (ProteinA) detection Kit (PerkinElmer #6760617R), by the addition of 30 μL to the well of a mixture of the antibody (1:2000 dilution) and detection beads (1:2000 dilution of both beads) in bead buffer (50 mM Tris, pH 7.5, 0.01% Tween20). The additions were carried out under dark conditions to protect the detection beads from light. A lid was placed on top of the plate and incubated for 1 hour at room temperature, then the luminescence was read on a PerkinElmer Envision instrument. The concentration of each compound for 50% inhibition (IC50) was calculated by non-linear regression using XL Fit data analysis software.

b-Raf(V600E), sequence (P15056 whole entry V600E): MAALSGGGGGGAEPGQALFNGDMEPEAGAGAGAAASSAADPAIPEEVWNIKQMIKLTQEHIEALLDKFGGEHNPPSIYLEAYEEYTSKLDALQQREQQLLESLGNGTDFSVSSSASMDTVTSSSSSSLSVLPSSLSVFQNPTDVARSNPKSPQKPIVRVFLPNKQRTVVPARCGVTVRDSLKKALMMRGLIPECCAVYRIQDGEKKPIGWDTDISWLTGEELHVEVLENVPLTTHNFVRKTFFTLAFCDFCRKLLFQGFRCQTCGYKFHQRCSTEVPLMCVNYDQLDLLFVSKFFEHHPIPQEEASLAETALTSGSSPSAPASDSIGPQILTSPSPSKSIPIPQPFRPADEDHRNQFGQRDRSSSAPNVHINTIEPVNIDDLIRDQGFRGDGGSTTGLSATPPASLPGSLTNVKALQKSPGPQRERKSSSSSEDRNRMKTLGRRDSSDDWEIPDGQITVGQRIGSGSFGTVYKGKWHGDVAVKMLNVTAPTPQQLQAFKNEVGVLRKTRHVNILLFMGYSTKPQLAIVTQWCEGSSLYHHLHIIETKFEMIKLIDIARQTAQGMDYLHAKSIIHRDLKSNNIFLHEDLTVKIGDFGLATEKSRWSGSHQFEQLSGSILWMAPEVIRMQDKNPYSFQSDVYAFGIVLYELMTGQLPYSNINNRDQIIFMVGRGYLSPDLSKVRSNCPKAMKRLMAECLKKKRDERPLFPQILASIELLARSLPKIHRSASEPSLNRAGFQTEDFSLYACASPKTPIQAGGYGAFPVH

| Compound | IC50 [nM] |
| --- | --- |
| COC(=O)N[C@@H](C)CNc1nccc(-c2sc(C3CC3)nc2-c2cc(Cl)cc(NS(C)(=O)=O)c2Cl)n1 [Example 55] | 0.28 |
| CCCS(=O)(=O)Nc1cc(Cl)cc(-c2nc(C3CC3)oc2-c2ccnc(NC[C@H](C)NC(=O)OC)n2)c1Cl [Example 57] | 0.56 |
| CS(=O)(=O)Nc1cc(Cl)cc(-c2nc(C3CC3)oc2-c2ccnc(N)n2)c1Cl [Example 58] | 0.35 |
| CNc1nccc(-c2oc(C3CC3)nc2-c2cc(Cl)cc(NS(C)(=O)=O)c2Cl)n1 [Example 59] | 1.5 |
| COC(=O)N[C@@H](C)CNc1nccc(-c2oc(C3CC3)nc2-c2cc(Cl)cc(NS(C)(=O)=O)c2Cl)n1 [Example 60] | 0.46 |
| CNc1nccc(-c2sc(C(C)(C)C)nc2-c2cc(Cl)cc(NS(C)(=O)=O)c2F)n1 [Example 61] | 0.65 |
| CCCS(=O)(=O)Nc1cc(Cl)cc(-c2nc(C3CC3)oc2-c2ccnc(NC)n2)c1F [Example 62] | 0.28 |
| CCCS(=O)(=O)Nc1cc(Cl)cc(-c2nc(C3CC3)oc2-c2ccnc(NC[C@H](C)NC(=O)OC)n2)c1F [Example 64] | 0.28 |

These reach a lower IC50. Values come first.

| IC50 [nM] | Compound |
| --- | --- |
| 0.09 | CCCS(=O)(=O)Nc1cc(Cl)cc(-c2nc(C3CC3)sc2-c2ccnc(NC[C@H](C)NC(=O)OC)n2)c1F [Example 65] |
| 0.058 | CCCS(=O)(=O)Nc1cc(Cl)cc(-c2nc(C3CC3)sc2-c2ccnc(N)n2)c1F [Example 66] |
| 0.044 | CCCS(=O)(=O)Nc1cc(Cl)cc(-c2nc(C3CC3)oc2-c2ccnc(N)n2)c1F [Example 63] |
| 0.022 | CCCS(=O)(=O)Nc1cc(Cl)cc(-c2nc(C3CC3)oc2-c2ccnc(N)n2)c1Cl [Example 56] |
